Measured values as given in article PMC10101059, “Rational Design of Stapled Antimicrobial Peptides to Enhance Stability and In Vivo Potency against Polymicrobial Sepsis” (Microbiology Spectrum, 2023).
Values after ≈ are worked out from the molar mass of the structure shown. Read-outs that look alike come from different tables or passages of the source. Bridge positions count the residues as written; N and C are the ends. Square brackets hold non-standard residues; d marks the D form. Peptide text beside a SMILES is read from it. R5 = C=CCCC[C@@](C)(N)C(=O)O

What was measured:
MDR A. baumannii 2998 [1] = assay: microbe, parasite or virus in culture; assay type: cell-based, Acinetobacter baumannii; conditions: MDR 2998; read-out: MBC
Summary of the method: (§1)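 Broth microdilution per modified NCCLS protocol: 5 × 10^5 CFU/mL bacteria exposed to serial peptide concentrations, 37 ± 2°C for 16 to 20 h. MIC = lowest concentration giving clear wells; clear wells plated on Mueller-Hinton agar overnight at 37 ± 2°C, MBC = lowest concentration with no growth. Serum sensitivity tested in medium with 50% human serum.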

MDR A. baumannii 921 [2] = assay: microbe, parasite or virus in culture; assay type: cell-based, Acinetobacter baumannii; conditions: MDR 921
Summary of the method: as §1

A. baumannii [3] = assay: Bacterial killing kinetics; assay type: cell-based, Acinetobacter baumannii; conditions: at respective MBC
Experimental: Mid-log-phase A. baumannii (5 × 10^5 CFU/mL) bacterial cells were treated with the test candidates at appropriate bactericidal concentrations, followed by incubation at 37°C. The treated bacterial cells were plated in MHA to determine the bacterial killing rate as a function of time ([52]).

A. baumannii [4] = assay: Serial passage (induced resistance) assay; assay type: cell-based, Acinetobacter baumannii; conditions: after serial passage for 15 cycles
Experimental: The experimental procedure was performed according to the MIC protocol for A. baumannii described above. Subsequently, bacterial samples from sub-MIC wells were passaged, and the MIC was estimated again. This process was repeated for 15 cycles, and the change in MIC over […] was reported ([23]).

A. baumannii biofilm = assay: Biofilm inhibition assay; assay type: cell-based, Acinetobacter baumannii; conditions: 0.5× to 4× MIC
Experimental: (i) Biofilm inhibition assay. Fifty μL of 2 × 10^6 CFU/mL A. baumannii bacterial suspension was added to a 96-well plate. Then, 50 μL of peptide/drug (various concentrations) was added, and the plate was incubated for 24 h. The residual solution was removed, and wells were washed, followed by treatment with 100% methanol for 15 min at room temperature. The methanol was then removed, and the wells were allowed to dry at room temperature. Next, the wells were incubated with 100 μL of 0.02% crystal violet for 30 min. After the incubation, the wells were washed with distilled water and dried for an appropriate length of time. Finally, 100 μL of 33% acetic acid was added to the wells for 1 h, followed by reading the absorbance at 595 nm ([55]).

MDR A. baumannii 1019 = assay: microbe, parasite or virus in culture; assay type: cell-based, Acinetobacter baumannii; conditions: for TP4-3 and meropenem combined MIC: MIC of each agent in combination
Experimental: (§2) The FICI was measured using a standard checkerboard microdilution assay ([57]). Two-fold dilutions of antibiotics were made across the x axis, and two-fold peptide dilutions were made across the y axis. Next, bacteria were added at 5 × 10^5 CFU/well (A. baumannii), followed by incubation at 37 ± 2°C for 16 to 20 h. FIC indices were calculated according to the following equations: FICI = FIC1 + FIC2; FIC1 = (MIC12 combined)/MIC1; FIC2 = (MIC12 combined)/MIC2. The combined efficacy was estimated as follows: FICI ≤ 0.5, synergistic; 0.5 to 1, additive; 1 to 2, indifferent; ≥2, antagonistic.

MDR A. baumannii 14B001 = assay: microbe, parasite or virus in culture; assay type: cell-based, Acinetobacter baumannii; conditions: for TP4-3 and meropenem combined MIC: MIC of each agent in combination
Experimental: as §2

MDR A. baumannii 1607 = assay: microbe, parasite or virus in culture; assay type: cell-based, Acinetobacter baumannii; conditions: for TP4-3 and meropenem combined MIC: MIC of each agent in combination
Experimental: as §2

MDR A. baumannii 1702 = assay: microbe, parasite or virus in culture; assay type: cell-based, Acinetobacter baumannii; conditions: for TP4-3 and meropenem combined MIC: MIC of each agent in combination
Experimental: as §2

MDR A. baumannii 2962 = assay: microbe, parasite or virus in culture; assay type: cell-based, Acinetobacter baumannii; conditions: for TP4-3 and meropenem combined MIC: MIC of each agent in combination
Experimental: as §2

MDR A. baumannii 2982 = assay: microbe, parasite or virus in culture; assay type: cell-based, Acinetobacter baumannii; conditions: for TP4-3 and meropenem combined MIC: MIC of each agent in combination
Experimental: as §2

MDR A. baumannii 921 [5] = assay: microbe, parasite or virus in culture; assay type: cell-based, Acinetobacter baumannii; conditions: for TP4-3 and meropenem combined MIC: MIC of each agent in combination
Experimental: as §2

MDR A. baumannii 1033 = assay: Checkerboard microdilution assay (FICI); assay type: cell-based, Acinetobacter baumannii; conditions: for TP4-3 and meropenem combined MIC: MIC of each agent in combination
Experimental: as §2

MDR A. baumannii 2088 = assay: Checkerboard microdilution assay (FICI); assay type: cell-based, Acinetobacter baumannii; conditions: for TP4-3 and meropenem combined MIC: MIC of each agent in combination
Experimental: as §2

MDR A. baumannii 2997 = assay: Checkerboard microdilution assay (FICI); assay type: cell-based, Acinetobacter baumannii; conditions: for TP4-3 and meropenem combined MIC: MIC of each agent in combination
Experimental: as §2

MDR A. baumannii 2998 [6] = assay: Checkerboard microdilution assay (FICI); assay type: cell-based, Acinetobacter baumannii; conditions: for TP4-3 and meropenem combined MIC: MIC of each agent in combination
Experimental: as §2

MDR A. baumannii 3618 = assay: Checkerboard microdilution assay (FICI); assay type: cell-based, Acinetobacter baumannii; conditions: for TP4-3 and meropenem combined MIC: MIC of each agent in combination
Experimental: as §2

NDM1 K. pneumoniae = assay: microbe, parasite or virus in culture; assay type: cell-based, Klebsiella pneumoniae; conditions: for TP4-3 and meropenem combined MIC: MIC of each agent in combination
E. aerogenes = assay: microbe, parasite or virus in culture; assay type: cell-based, Enterobacter aerogenes; conditions: for TP4-3 and meropenem combined MIC: MIC of each agent in combination
S enterica = assay: Checkerboard microdilution assay (FICI); assay type: cell-based, Salmonella enterica; conditions: MIC of each agent in combination, TP4-3 and M
P. aeruginosae = assay: microbe, parasite or virus in culture; assay type: cell-based, Pseudomonas aeruginosa; conditions: for TP4-3 and meropenem combined MIC: MIC of each agent in combination
[7] = read-out: Single drug treatment MIC

`CC[C@H](C)[C@H](NC(=O)[C@@H](NC(=O)[C@@H](N)Cc1ccccc1)[C@@H](C)CC)C(=O)N[C@]1(C)CCCC=CCCC[C@](C)(C(=O)NCC(=O)N[C@@H](CC(C)C)C(=O)N[C@@H](Cc2ccccc2)C(=O)N[C@@H](CCCCN)C(=O)N[C@@H](CCCCN)C(=O)N[C@@H](CCCCN)C(=O)N[C@@H](C)C(=O)NCC(=O)N[C@@H](C)C(=O)N[C@]2(C)CCCC=CCCC[C@](C)(C(=O)N[C@H](C(=O)N[C@@H](CCCCN)C(=O)N[C@@H](CCCCN)C(=O)O)[C@@H](C)CC)NC(=O)[C@H](CCCCN)NC(=O)[C@H](CCCCN)NC(=O)[C@H](CCCCN)NC2=O)NC(=O)[C@H](CO)NC(=O)[C@H](CCCCN)NC(=O)[C@H](CCCCN)NC1=O` [TP4-3] (H-FII[R5]KKS[R5]GLFKKKAGA[R5]KKK[R5]IKK-OH; staple 4-8, 18-22; N-terminus and C-terminus assumed) gave an MBC (MDR A. baumannii 2998 [1]) of 12.5 µM (≈ 36.1 µg/mL), an MBC (MDR A. baumannii 921 [2]) of 6.25 µM (≈ 18.1 µg/mL) and an MIC (MDR A. baumannii 921 [2]) of 6.25 µM (≈ 18.1 µg/mL). The “time to clear the entire bacterial load” value (A. baumannii [3]) was at most 8 h, the “net increase in the MIC” value (A. baumannii [4]) was 5 fold and the “inhibition of biofilm (biomass) formation” value (A. baumannii biofilm) was “substantial inhibition of biomass formation”. The MIC (MDR A. baumannii 1019; MDR 1019, read-out: Single drug treatment MIC) was 12.5 µM, the “TP4-3 and meropenem combined MIC” value (MDR A. baumannii 1019; TP4-3 and D) was 3.13 µM and the “TP4-3 and meropenem combined MIC” value (MDR A. baumannii 1019; TP4-3 and M) was 3.13 µM. The MIC (MDR A. baumannii 14B001; MDR 14B001, read-out: Single drug treatment MIC) was 3.13 µM, the “TP4-3 and meropenem combined MIC” value (MDR A. baumannii 14B001; TP4-3 and D) was 3.13 µM and the “TP4-3 and meropenem combined MIC” value (MDR A. baumannii 14B001; TP4-3 and M) was 0.09 µM. The MIC (MDR A. baumannii 1607; MDR 1607, read-out: Single drug treatment MIC) was 6.25 µM, the “TP4-3 and meropenem combined MIC” value (MDR A. baumannii 1607; TP4-3 and D) was 3.13 µM and the “TP4-3 and meropenem combined MIC” value (MDR A. baumannii 1607; TP4-3 and M) was 3.13 µM. The MIC (MDR A. baumannii 1702; MDR 1702, read-out: Single drug treatment MIC) was 6.25 µM, the “TP4-3 and meropenem combined MIC” value (MDR A. baumannii 1702; TP4-3 and D) was 3.13 µM and the “TP4-3 and meropenem combined MIC” value (MDR A. baumannii 1702; TP4-3 and M) was 3.13 µM. The MIC (MDR A. baumannii 2962; MDR 2962, read-out: Single drug treatment MIC) was 6.25 µM, the “TP4-3 and meropenem combined MIC” value (MDR A. baumannii 2962; TP4-3 and D) was 3.13 µM and the “TP4-3 and meropenem combined MIC” value (MDR A. baumannii 2962; TP4-3 and M) was 3.13 µM. The MIC (MDR A. baumannii 2982; MDR 2982, read-out: Single drug treatment MIC) was 6.25 µM, the “TP4-3 and meropenem combined MIC” value (MDR A. baumannii 2982; TP4-3 and D) was 3.13 µM and the “TP4-3 and meropenem combined MIC” value (MDR A. baumannii 2982; TP4-3 and M) was 3.13 µM. The MIC (MDR A. baumannii 921 [5]; MDR 921, read-out: Single drug treatment MIC) was 6.25 µM, the “TP4-3 and meropenem combined MIC” value (MDR A. baumannii 921 [5]; TP4-3 and D) was 3.13 µM and the “TP4-3 and meropenem combined MIC” value (MDR A. baumannii 921 [5]; TP4-3 and M) was 0.78 µM. The “TP4-3 and meropenem combined MIC” value (MDR A. baumannii 1033; TP4-3 and D) was 3.13 µM, the “TP4-3 and meropenem combined MIC” value (MDR A. baumannii 1033; TP4-3 and M) was 3.13 µM and the MIC (MDR A. baumannii 1033; [7]) was 12.5 µM. The “TP4-3 and meropenem combined MIC” value (MDR A. baumannii 2088; TP4-3 and D) was 3.13 µM, the “TP4-3 and meropenem combined MIC” value (MDR A. baumannii 2088; TP4-3 and M) was 3.13 µM and the MIC (MDR A. baumannii 2088; [7]) was 6.25 µM. The “TP4-3 and meropenem combined MIC” value (MDR A. baumannii 2997; TP4-3 and D) was 3.13 µM, the “TP4-3 and meropenem combined MIC” value (MDR A. baumannii 2997; TP4-3 and M) was 3.13 µM and the MIC (MDR A. baumannii 2997; [7]) was 6.25 µM. The “TP4-3 and meropenem combined MIC” value (MDR A. baumannii 2998 [6]; TP4-3 and D) was 3.13 µM, the “TP4-3 and meropenem combined MIC” value (MDR A. baumannii 2998 [6]; TP4-3 and M) was 3.13 µM and the MIC (MDR A. baumannii 2998 [6]; [7]) was 6.25 µM. The “TP4-3 and meropenem combined MIC” value (MDR A. baumannii 3618; TP4-3 and D) was 3.13 µM, the “TP4-3 and meropenem combined MIC” value (MDR A. baumannii 3618; TP4-3 and M) was 3.13 µM and the MIC (MDR A. baumannii 3618; [7]) was 12.5 µM. For the same compound, the “TP4-3 and meropenem combined MIC” value (NDM1 K. pneumoniae; TP4-3 and D) was 6.25 µM, the “TP4-3 and meropenem combined MIC” value (NDM1 K. pneumoniae; TP4-3 and M) was 6.25 µM and the MIC (NDM1 K. pneumoniae; NDM1, read-out: Single drug treatment MIC) was 25 µM (≈ 72.3 µg/mL). For the same compound, the “TP4-3 and meropenem combined MIC” value (E. aerogenes; TP4-3 and D) was 3.13 µM, the “TP4-3 and meropenem combined MIC” value (E. aerogenes; TP4-3 and M) was 0.78 µM and the MIC (E. aerogenes; [7]) was 25 µM (≈ 72.3 µg/mL). The “TP4-3 and meropenem combined MIC” value (S enterica) was 0.39 µM, the “TP4-3 and meropenem combined MIC” value (P. aeruginosae; TP4-3 and D) was 6.25 µM and the “TP4-3 and meropenem combined MIC” value (P. aeruginosae; TP4-3 and M) was 0.78 µM. It also gave an MIC (P. aeruginosae; [7]) of 25 µM (≈ 72.3 µg/mL).
